Laboratory results: patent US20080154179A1 (priority 2005, published 2008)
Values after ≈ are worked out from the molar mass of the structure shown. “Also recorded” adds a separate entry of the source.

How the values were obtained:
[1] = cited from earlier work; for transdermal delivery into and across human skin: literature, primaquine: simple transdermal patch, full-thickness excised human skin
[2] = relative to base line; cited from earlier work
[3] = blood level; cited from earlier work
[4] = Stability of primaquine after exposure to iontophoresis by TLC of receptor compartment; conditions: receptor compartment contents, silica gel, n-butanol:acetic acid:water (5:3:2)
[5] = In-vitro transdermal iontophoretic delivery of primaquine patch through epidermal membranes in Mattek permeation device
plasma cholinesterase = target: T1, plasma cholinesterase (Homo sapiens, UniProt P06276); test: Selective inhibition of cholinesterase activity in plasma samples treated with quinidine; type: biochemical; conditions: quinidine 20 μM, BTC vs other substrate
T1 construct: plasma samples that were treated with quinidine (20 μM); from tissue; host or cells: plasma
T1 sequence (P06276 29-602): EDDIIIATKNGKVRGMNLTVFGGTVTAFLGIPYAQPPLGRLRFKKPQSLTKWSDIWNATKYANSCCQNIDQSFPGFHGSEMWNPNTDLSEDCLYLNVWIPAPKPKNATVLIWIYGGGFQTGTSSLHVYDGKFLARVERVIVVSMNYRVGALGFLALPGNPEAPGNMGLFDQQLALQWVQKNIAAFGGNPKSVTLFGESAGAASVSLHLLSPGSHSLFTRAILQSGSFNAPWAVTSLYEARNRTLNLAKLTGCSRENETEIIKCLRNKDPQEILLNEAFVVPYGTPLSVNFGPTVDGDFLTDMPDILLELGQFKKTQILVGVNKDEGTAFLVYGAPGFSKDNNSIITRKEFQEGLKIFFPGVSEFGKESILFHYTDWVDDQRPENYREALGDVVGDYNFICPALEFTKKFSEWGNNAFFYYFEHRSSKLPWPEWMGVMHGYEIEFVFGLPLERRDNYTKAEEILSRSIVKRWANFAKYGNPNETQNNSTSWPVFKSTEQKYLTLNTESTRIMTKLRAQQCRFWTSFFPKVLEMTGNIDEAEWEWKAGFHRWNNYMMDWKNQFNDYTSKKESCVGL

**Q.** With C[C@H]1c2cccc(O)c2C(=O)C2=C(O)[C@]3(O)C(=O)C(C(N)=O)=C(O)[C@@H](N(C)C)[C@@H]3[C@@H](O)[C@@H]21 [doxycycline] as the compound, how does the “transdermal delivery into and across human skin” value [1] read?
**A.** significant amounts

**Q.** For CC1CCC(C(C)C)C(O)C1 (centres unmarked) [menthol], which “increase in skin flux” value [2] is on record?
**A.** up to eight times the base line

**Q.** With CN1CCCC1c1cccnc1 (centres unmarked) [nicotine] as the compound, how does the solubility (physchem) read?
**A.** 50 mg/mL (≈ 308 mM)

**Q.** For COc1cc(NC(C)CCCN)c2ncccc2c1 (centres unmarked) [primaquine], which “transdermal delivery into and across human skin” value [1] is on record?
**A.** could deliver a therapeutic in vivo dose

**Q.** And the “share of the 10 mg dose delivered passively each hour” value ([1]; passive delivery, per hour)?
**A.** Approximately 5%

**Q.** And the “amount that can be delivered transdermally” value ([1]; within 24 hours, to achieve therapeutic plasma concentrations)?
**A.** 10 mg

**Q.** And the “therapeutic dosage (level) for the treatment of malaria” value [3]?
**A.** 0.03 µg/mL

**Q.** What about the “stability of the primaquine molecule after exposure to iontophoresis (TLC)” value [4] of the same compound?
**A.** intact primaquine is present; also recorded: there is more than one species of molecule present

**Q.** What about the “passive diffusion before and after iontophoresis” value ([5]; human epidermal membrane, no current, receptor PBS pH 7.4) of the same compound?
**A.** Minimal passive diffusion

**Q.** And the “amount delivered using electrotransport” value ([5]; in 40 minutes)?
**A.** 160 µg

**Q.** Which “inhibitory effect on plasma cholinesterase activity” value (plasma cholinesterase) does the source give for C=C[C@H]1C[N@@]2CC[C@H]1C[C@@H]2[C@@H](O)c1ccnc2ccc(OC)cc12 [quinidine] here?
**A.** the inhibitory effect was observed only when BTC was used
